Experimental data from publication PMC13252604, “First Generation Proteolysis Targeting Chimeras (PROTACs) for the Treatment of Progeria” (Advanced Science, 2026).

Tested on: HGADFN167 cells
Experiment: RNA-seq global transcriptomic analysis
Format: cell-based, human
Settings: HGADFN167, 5 µM, 20 days
Description: To establish the broader impact of PROTAC 2 at the molecular level, we performed detailed gene expression and pathway‐centric enrichment analysis. HGADFN167 cells were treated with either vehicle or compound 2 (5 µM) for 20 days before RNA was extracted for RNA‐seq analysis (3 independent biological samples per condition). […] Remarkably, IL6 identification supports the qPCR results previously obtained (Figure 6C). […] In line with these findings, we identified several genes associated with endothelial and blood vessel development (CLDN11 and FOXS1), ECM organization (PTX3, SCUBE3, TINAGL1, and TNFRSF11B), and mesodermal and mesenchymal regulation (MEST, MEDAG, and STC2).
Cells were harvested by trypsin, centrifuged and washed with PBS. Cells pellets were added with 70% (vol/vol) ice-cold ethanol. The mixture was incubated for 15min at 4 °C, centrifuged 2500 rpm, washed with PBS and then re-suspended in 500ul staining buffer (25ug/mL propidium iodide and 100μg/ml DNAse-free RNAse both from Sigma-Aldrich in PBS). The mixture was then allowed to incubate for 30min at 37 °C in the dark and samples were finally analysed by FACScalibur (Becton Dickinson) flow cytometer
11. Transmission electron microscopy.
Cells previously collected in 1.5 mL tube, were washed with PBS and fixed with 2.5% glutaraldehyde and 4% paraformaldehyde in Milloning´s phosphate buffer (41.5 mL 2.26% NaH2PO4·H2O and 8.5 mL 2.52% NaOH both in milliQ water, pH 7.2-7.4) for 4h at 4 °C. […]
Cells were incubated for 1 h in 1% OsO4 at room temperature and then thoroughly washed with milliQ water. […] The samples were analysed and examined in the transmission electron microscope JEM 1010 at 80 […]
Total RNA of HGPS fibroblasts (HGADFN167) and UCM-18142-treated HGPS fibroblasts were extracted for RNA sequencing. The RNA concentration and integrity were assessed using the Tape Station 4150 system (Agilent). […] All raw reads were mapped to the human genome (Grch38) using the software HISAT2. HTSeq was used to calculate Reads Count and transcripts per kilobase per million reads were computed. […]

CC1(C)Oc2cc3oc(=O)ccc3cc2C[C@@H]1OC(=O)CCCCCNc1cccc2c1C(=O)N(C1CCC(=O)NC1=O)C2=O (stereo partly drawn) [compound 2]
downregulated genes (adjusted p<0.01, log2 FC <−1.0): 205
upregulated genes (adjusted p<0.01, log2 FC >1.0): 83
differentially expressed genes, treated vs non‐treated (adjusted p<0.01, log2 FC >1.0 or <−1.0): 288
